The record followed here is US8987287B2, “Spirocyclic morphinans and their use” (Purdue Pharma L.P., priority 2012, dated 2015).

Each structure is given as a SMILES string.

Experiment [1] deals with κ opioid receptor (Homo sapiens (Human), UniProt P41145). In words: κ-opioid receptor [35S]GTPγS functional assay, HEK-293 or CHO cells. It is filed as biochemical. The following applies: for Emax: relative to U69,593, HEK-293 or CHO cells. (In general: Binding of GTPγS marks nucleotide exchange on a G protein.)
The target in experiment [2] is T1, μ-opioid receptor (Homo sapiens (Human), UniProt P35372). Nature of the experiment: μ-opioid receptor [35S]GTPγS functional assay, HEK-293 or CHO cells. The following applies: for Emax: relative to DAMGO, HEK-293 or CHO cells. The experiment is classed as biochemical.
Experiment [3] concerns the target T1, μ-opioid receptor. Nature of the experiment: μ-opioid receptor radioligand ([3H]-diprenorphine) dose-displacement binding assay. The following applies: binding affinity, read-out: Opioid Receptor Ki (nM) μ. How it is done: μ-Opioid Receptor Binding Assay Procedures: Radioligand dose-displacement binding assays for μ-opioid receptors used 0.3 nM [^3H]-diprenorphine (Perkin Elmer, Shelton, Conn.), with […] membrane protein/well in a final volume of 500 μl binding buffer (10 mM MgCl2, 1 mM EDTA, 5% DMSO, 50 mM HEPES, pH 7.4). Reactions were carried out in the absence or presence of increasing concentrations of unlabeled naloxone. All reactions were conducted in 96-deep well polypropylene plates for 2 hours at room temperature. Binding reactions were terminated by rapid filtration onto 96-well Unifilter GF/C filter plates (Perkin Elmer, Shelton, Conn.), presoaked in 0.5% polyethylenimine using a 96-well tissue harvester (Perkin Elmer, Shelton, Conn.) followed by performing three filtration washes with 500 μl of ice-cold binding buffer. Filter plates were subsequently dried at 50° C. for 2-3 hours. BetaScint scintillation cocktail (Perkin Elmer, Shelton, Conn.) was added (50 μl/well), and plates were counted using a Packard Top-Count for 1 min/well. The data were analyzed using the one-site competition curve fitting functions in GraphPad PRISM™ v. 3.0 or higher (San Diego, Calif.), or an in-house function for one-site competition curve-fitting.
In TABLE 1, binding affinity of certain Compounds of the Invention to the μ-, δ- and κ-opioid receptors was determined as described above.

Turning to `O=C1NC[C@@]2(CC[C@@]3(O)[C@H]4Cc5ccc(O)cc5[C@@]3(CCN4CC3CC3)C2)N1` [Compound 5, (4bR,4′S,8aS,9R)-11-(cyclopropylmethyl)-3,8a-dihydroxy-5,7,8,8a,9,10-hexahydrospiro[9,4b-(epiminoethano)phenanthrene-6,4′-imidazolidin]-2′-one], in experiment [1], it took 67.2 ± 8.88 nM to reach a half-maximal effect (EC50) and the Emax (as a rule, the maximal effect, on the per cent scale that the assay sets) is 67.33 ± 0.33%. Moreover, in experiment [2], the EC50 (commonly the midpoint of the concentration-response curve) was greater than 20000 nM and the Emax was -1%. The Ki (commonly a measure of affinity in units of concentration, obtained from inhibition or displacement) in experiment [3] was 3.55 ± 0.77 nM.
In the case of `O=C1NC(=O)[C@@]2(CC[C@@]3(O)[C@H]4Cc5ccc(O)cc5[C@@]3(CCN4CC3CC3)C2)N1` [Compound 3, (4bR,4′S,8aS,9R)-11-(cyclopropylmethyl)-3,8a-dihydroxy-5,7,8,8a,9,10-hexahydrospiro[9,4b-(epiminoethano)phenanthrene-6,4′-imidazolidine]-2′,5′-dione], in experiment [1], the EC50 was determined as 54.8 ± 12.6 nM and the Emax was 80.2 ± 3.32%. Further, in experiment [2], the EC50 is greater than 20000 nM and the Emax came to 10.6 ± 7.11%. Moreover, the Ki in experiment [3] worked out at 15.9 ± 3.02 nM.
